According to ChEMBL document CHEMBL1140599, “DAT/SERT selectivity of flexible GBR 12909 analogs modeled using 3D-QSAR methods” (Bioorg Med Chem, 2007):

Assays:
[1] = organism: Rattus norvegicus; assay: Selectivity for rat DAT over rat SERT
[2] = target: Sodium-dependent serotonin transporter (Rattus norvegicus, UniProt P31652); assay: Displacement of [125I]RTI55 from SERT in rat brain synaptosomes; type: subcellular
[3] = target: Sodium-dependent dopamine transporter (Rattus norvegicus, UniProt P23977); assay: Displacement of [125I]RTI55 from DAT in rat brain synaptosomes; type: subcellular
Sequence of Sodium-dependent dopamine transporter (P23977 whole entry): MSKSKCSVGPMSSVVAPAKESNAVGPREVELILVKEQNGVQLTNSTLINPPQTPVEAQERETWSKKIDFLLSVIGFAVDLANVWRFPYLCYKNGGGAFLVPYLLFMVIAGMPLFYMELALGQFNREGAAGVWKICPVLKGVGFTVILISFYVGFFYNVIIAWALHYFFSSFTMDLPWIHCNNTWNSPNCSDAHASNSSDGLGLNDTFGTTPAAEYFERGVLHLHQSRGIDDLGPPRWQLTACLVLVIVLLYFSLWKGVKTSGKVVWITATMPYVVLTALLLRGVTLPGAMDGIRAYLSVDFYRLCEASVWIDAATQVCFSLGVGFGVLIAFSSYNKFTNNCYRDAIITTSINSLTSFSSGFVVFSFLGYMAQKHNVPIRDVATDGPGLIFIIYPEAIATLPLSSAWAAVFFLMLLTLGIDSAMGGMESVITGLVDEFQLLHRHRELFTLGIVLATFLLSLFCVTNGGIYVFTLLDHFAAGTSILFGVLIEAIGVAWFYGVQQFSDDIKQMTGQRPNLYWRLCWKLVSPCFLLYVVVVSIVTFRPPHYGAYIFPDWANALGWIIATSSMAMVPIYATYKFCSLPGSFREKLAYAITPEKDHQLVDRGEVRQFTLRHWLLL

Sequence of Sodium-dependent serotonin transporter (P31652 whole entry): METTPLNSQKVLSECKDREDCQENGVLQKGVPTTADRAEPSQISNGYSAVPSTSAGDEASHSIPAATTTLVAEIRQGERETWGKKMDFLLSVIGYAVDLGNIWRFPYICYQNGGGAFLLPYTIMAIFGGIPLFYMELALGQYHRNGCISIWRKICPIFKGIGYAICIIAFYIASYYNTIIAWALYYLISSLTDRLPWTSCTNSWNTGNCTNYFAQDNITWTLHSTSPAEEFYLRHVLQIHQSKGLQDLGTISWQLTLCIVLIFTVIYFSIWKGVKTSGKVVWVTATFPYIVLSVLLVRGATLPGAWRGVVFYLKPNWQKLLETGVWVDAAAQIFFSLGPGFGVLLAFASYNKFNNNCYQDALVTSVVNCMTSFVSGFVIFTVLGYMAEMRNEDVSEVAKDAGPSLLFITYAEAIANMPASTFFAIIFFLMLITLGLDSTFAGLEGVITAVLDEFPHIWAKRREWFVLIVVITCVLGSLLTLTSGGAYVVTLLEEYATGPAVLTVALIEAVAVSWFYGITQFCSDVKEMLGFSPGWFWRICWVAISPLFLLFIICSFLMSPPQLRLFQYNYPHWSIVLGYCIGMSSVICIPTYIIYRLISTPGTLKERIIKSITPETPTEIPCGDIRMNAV

| Structure (SMILES) | Ratio pKi [1] | Ki [2] [µM] | Ki [3] [µM] |
| --- | --- | --- | --- |
| Fc1ccc(C(OCCN2CCN(Cc3ccc4ncccc4c3)CC2)c2ccc(F)cc2)cc1 | 0.95 | 0.551 | 0.0618 |
| Fc1ccc(C(OCCN2CCN(CC3=Cc4ccccc4CC3)CC2)c2ccc(F)cc2)cc1 | 1.61 |  |  |
| Fc1ccc(C(OCCC2CCN(Cc3ccc(Cl)cc3)CC2)c2ccc(F)cc2)cc1 | 2.3 |  |  |
| Fc1ccc(C(OCCN2CCN(Cc3cccc4ccccc34)CC2)c2ccc(F)cc2)cc1 | 0.89 | 0.243 | 0.031 |
| O=C1CCCC1CN1CCN(CCOC(c2ccc(F)cc2)c2ccc(F)cc2)CC1 (racemic) | 1.06 |  |  |
| Fc1ccc(C(OCCN2CCN(Cc3cnc4ccccc4c3)CC2)c2ccc(F)cc2)cc1 | 1.48 | 0.485 | 0.0161 |
| Fc1ccc(C(OCCN2CCN(Cc3cc4ccccc4o3)CC2)c2ccc(F)cc2)cc1 | 1.65 | 0.286 | 0.0064 |
| Fc1ccc(C(OCCN2CCN(CC#Cc3ccccc3)CC2)c2ccc(F)cc2)cc1 | 1.12 | 0.266 | 0.02 |
| Fc1ccc(C(OCCN2CCN(CC34CC5CC(CC(C5)C3)C4)CC2)c2ccc(F)cc2)cc1 | 0.78 | 0.598 | 0.1 |
| COc1ccc(CN2CCC(CCOC(c3ccc(F)cc3)c3ccc(F)cc3)CC2)cc1 | 1.53 |  |  |
| COc1ccc2c(c1)CC[C@@H](CN1CCN(CCOC(c3ccc(F)cc3)c3ccc(F)cc3)CC1)[C@H]2O | -0.67 |  | 0.014 |
| N#Cc1ccc(CN2CCC(CCOC(c3ccc(F)cc3)c3ccc(F)cc3)CC2)cc1 | 2.7 |  |  |
| O=[N+]([O-])c1ccc(CN2CCC(CCOC(c3ccc(F)cc3)c3ccc(F)cc3)CC2)cc1 | 2.51 |  |  |
| O=C1CCCCCC1CN1CCN(CCOC(c2ccc(F)cc2)c2ccc(F)cc2)CC1 (racemic) | 1.03 |  |  |
| CCN1CCN(CCOC(c2ccc(F)cc2)c2ccc(F)cc2)CC1 | 1.79 |  |  |
| Fc1ccc(C(OCCC2CCN(Cc3cc4ccccc4o3)CC2)c2ccc(F)cc2)cc1 | 1.93 | 0.085 | 0.00101 |
| COc1ccc2c(c1)CCC(CN1CCN(CCOC(c3ccc(F)cc3)c3ccc(F)cc3)CC1)=C2 | 0.03 |  | 0.053 |
| Fc1ccc(C(OCCN2CCN(Cc3ccc4ccccc4n3)CC2)c2ccc(F)cc2)cc1 | -0.04 | 0.051 | 0.056 |
| Fc1ccc(C(OCCC2CCN(Cc3ccc(C(F)(F)F)cc3)CC2)c2ccc(F)cc2)cc1 | 2.6 |  |  |
| Fc1ccc(C(OCCC2CCN(C[C@@H]3Cc4ccccc4CN3)CC2)c2ccc(F)cc2)cc1 | 1 | 0.0481 | 0.00477 |
| COc1cccc(CN2CCC(CCOC(c3ccc(F)cc3)c3ccc(F)cc3)CC2)c1 | 1.08 |  |  |
| Fc1ccc(C(OCCN2CCN(Cc3ccc4ccccc4c3)CC2)c2ccc(F)cc2)cc1 | 1.59 | 0.312 | 0.008 |
| Fc1ccc(C(OCCN2CCN(CCCCl)CC2)c2ccc(F)cc2)cc1 | 0.91 | 0.338 | 0.042 |

| Structure (SMILES) | Ratio pKi [1] | Ki [2] [µM] | Ki [3] [µM] |
| --- | --- | --- | --- |
| Fc1ccc(CN2CCC(CCOC(c3ccc(F)cc3)c3ccc(F)cc3)CC2)cc1 | 2.03 |  |  |
| Fc1ccc(C(OCCC2CCN(C[C@@H]3C[C@H]3c3ccccc3)CC2)c2ccc(F)cc2)cc1 | 1.44 | 0.022 | 0.0008 |
| Fc1ccc(C(OCCC2CCN(Cc3cc4ccccc4s3)CC2)c2ccc(F)cc2)cc1 | 2.18 | 0.246 | 0.00161 |
| Cc1ccc(CN2CCC(CCOC(c3ccc(F)cc3)c3ccc(F)cc3)CC2)cc1 | 1.62 |  |  |
| Fc1ccc(C(OCCC2CCN(Cc3ccc(I)cc3)CC2)c2ccc(F)cc2)cc1 | 1.99 |  |  |
| Fc1ccc(C(OCCC2CCN(Cc3cc4ccccc4[nH]3)CC2)c2ccc(F)cc2)cc1 | 2.08 | 0.088 | 0.00073 |
| Fc1ccc(C(OCCC2CCN(Cc3ccc(Br)cc3)CC2)c2ccc(F)cc2)cc1 | 2.26 |  |  |
| O=C1c2ccccc2CCC1CN1CCN(CCOC(c2ccc(F)cc2)c2ccc(F)cc2)CC1 (racemic) | 0.29 |  |  |
| Fc1ccc(C(OCCC2CCN(Cc3ccccc3)CC2)c2ccc(F)cc2)cc1 | 1.24 |  |  |
| O[C@H]1c2ccccc2CC[C@@H]1CN1CCN(CCOC(c2ccc(F)cc2)c2ccc(F)cc2)CC1 | 0.25 | 0.032 | 0.018 |
| Fc1ccc(C(OCCC2CCN(C[C@H]3Cc4ccccc4CN3)CC2)c2ccc(F)cc2)cc1 | 0.21 | 0.0152 | 0.00932 |
| O[C@H]1c2ccccc2CC[C@H]1CN1CCN(CCOC(c2ccc(F)cc2)c2ccc(F)cc2)CC1 | 1.36 |  |  |
| Fc1ccc(C(OCCC2CCN(C[C@H]3C[C@@H]3c3ccccc3)CC2)c2ccc(F)cc2)cc1 | 2.02 | 0.136 | 0.0013 |
| Fc1ccc(C(OCCN2CCN(Cc3cc4ccccc4s3)CC2)c2ccc(F)cc2)cc1 | 2.08 | 0.495 | 0.0041 |
| Fc1ccc(C(OCCN2CCN(Cc3cc4ccccc4[nH]3)CC2)c2ccc(F)cc2)cc1 | 2.23 | 0.119 | 0.0007 |
| Fc1ccc(C(OCCC2CCN(Cc3ccc4ccccc4c3)CC2)c2ccc(F)cc2)cc1 | 2.51 |  | 0.00071 |
| C=CCN1CCN(CCOC(c2ccc(F)cc2)c2ccc(F)cc2)CC1 | 1.41 |  |  |
| COc1ccc2c(c1)CCC(CN1CCN(CCOC(c3ccc(F)cc3)c3ccc(F)cc3)CC1)C2=O (racemic) | -0.87 |  |  |
| O=C1CCCCC1CN1CCN(CCOC(c2ccc(F)cc2)c2ccc(F)cc2)CC1 (racemic) | 1.29 | 1.69 | 0.087 |
| Fc1ccc(C(OCCC2CCN(Cc3cccc4ccccc34)CC2)c2ccc(F)cc2)cc1 | 1.36 |  |  |
| CCCN1CCN(CCOC(c2ccc(F)cc2)c2ccc(F)cc2)CC1 | 1.35 |  |  |
| Fc1ccc(C(OCCC2CCN(CC#Cc3ccccc3)CC2)c2ccc(F)cc2)cc1 | 1.49 | 0.164 | 0.0053 |
| COc1ccccc1CN1CCC(CCOC(c2ccc(F)cc2)c2ccc(F)cc2)CC1 | 0.6 |  |  |
